Test results as given in PubChem BioAssay AID1963443 (Molecular Pharmacology Branch, DTP, NCI, 2024).

System: MDA-MB-231 complex spheroids, growth inhibition
Assay: Anticancer human tumor MDA-MB-231 cell line growth inhibition [Asc];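 note: spheroids exposed to compounds for 7 days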
Conditions: for IC50: curve of first compound; for viability, T/C: stronger effect = lower value
Outline: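 Tumor cells were grown as complex spheroids with human endothelial cells (HUVEC) and human mesenchymal stem cells as stroma. Agents were tested alone and in combination, in half-log steps down from the clinical Cmax, or from 10 microM where Cmax was unknown.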

[1] = second compound 0.1 µM, first compound 0.0316 µM
[2] = second compound 0.1 µM, first compound 0.1 µM
[3] = second compound 0.1 µM, first compound 0.316 µM
[4] = second compound 0.1 µM, first compound 1 µM
[5] = second compound 0.1 µM, first compound 3.16 µM
[6] = second compound 0.1 µM, first compound 10 µM
[7] = second compound 0.316 µM, first compound 0.0316 µM
[8] = second compound 0.316 µM, first compound 0.1 µM
[9] = second compound 0.316 µM, first compound 0.316 µM
[10] = second compound 0.316 µM, first compound 1 µM
[11] = second compound 0.316 µM, first compound 3.16 µM
[12] = second compound 0.316 µM, first compound 10 µM
[13] = second compound 1 µM, first compound 0.0316 µM
[14] = second compound 1 µM, first compound 0.1 µM
[15] = second compound 1 µM, first compound 0.316 µM
[16] = second compound 1 µM, first compound 1 µM
[17] = second compound 1 µM, first compound 3.16 µM
[18] = second compound 1 µM, first compound 10 µM
[19] = second compound 3.16 µM, first compound 0.0316 µM
[20] = second compound 3.16 µM, first compound 0.1 µM
[21] = second compound 3.16 µM, first compound 0.316 µM
[22] = second compound 3.16 µM, first compound 1 µM
[23] = second compound 10 µM, first compound 0.0316 µM
[24] = second compound 10 µM, first compound 0.1 µM
[25] = second compound 10 µM, first compound 0.316 µM
[26] = second compound 10 µM, first compound 1 µM

In the case of `C#Cc1c(F)ccc2cc(O)cc(-c3ncc4c(N5CC6CCC(C5)N6)nc(OCC56CCCN5CC(F)C6)nc4c3F)c12` (stereo not given) + Cc1c(S(C)(=O)=O)c(-c2cc(F)cc(N3CCN(c4ccc(NS(=O)(=O)c5ccc(NC(CCN6CCC(C(=O)OCCCP(=O)(O)O)CC6)CSc6ccccc6)c(S(=O)(=O)C(F)(F)F)c5)cc4)CC3)c2)c(-c2ccc(Cl)cc2)n1C(C)C, the IC50 (second compound 0.1 µM) is reported as greater than 10000 nM, the IC50 (second compound 0.316 µM) is reported as 7530 nM and the IC50 (second compound 1 µM) is reported as 4700 nM. The IC50 (second compound 3.16 µM) was 3260 nM, the IC50 (second compound 10 µM) was 3280 nM and the viability, T/C [1] was 96.6%. The viability, T/C [2] was 103%, the viability, T/C [3] was 95.6% and the viability, T/C [4] was 73.6%. For the same compound, the viability, T/C [5] was 68.7%, the viability, T/C [6] was 50.7% and the viability, T/C [7] was 105%. It also gave a viability, T/C [8] of 104%, a viability, T/C [9] of 98.3% and a viability, T/C [10] of 76.6%. The viability, T/C [11] was 63.4%, the viability, T/C [12] was 45.5% and the viability, T/C [13] was 102%. The viability, T/C [14] was 96.8%, the viability, T/C [15] was 101% and the viability, T/C [16] was 74.2%. It also gave a viability, T/C [17] of 59.6%, a viability, T/C [18] of 36.1% and a viability, T/C [19] of 93.3%. The viability, T/C [20] was 94.6%, the viability, T/C [21] was 97.7% and the viability, T/C [22] was 72.2%. For the same compound, the viability, T/C (second compound 3.16 µM, first compound 3.16 µM) was 52.9%, the viability, T/C (second compound 3.16 µM, first compound 10 µM) was 23.3% and the viability, T/C [23] was 97.2%. The viability, T/C [24] was 97.2%, the viability, T/C [25] was 99% and the viability, T/C [26] was 89.5%. For the same compound, the viability, T/C (second compound 10 µM, first compound 3.16 µM) was 51.3% and the viability, T/C (second compound 10 µM, first compound 10 µM) was 12.7%.

`NC(=O)C(=Cn1cnc(-c2cc(C(F)(F)F)cc(C(F)(F)F)c2)n1)c1cncnc1` + CCN1C(C(=O)NC23CCC(C(=O)O)(CC2)CC3)C(c2cccc(Cl)c2F)C2(C(=O)Nc3cc(Cl)ccc32)C12CCCCC2 showed an IC50 (second compound 0.03 µM) of 78.3 nM, an IC50 (second compound 0.0949 µM) of 70.5 nM and an IC50 (second compound 0.3 µM) of 84.7 nM. The IC50 (second compound 0.949 µM) was 84.5 nM, the IC50 (second compound 3 µM) was 67.4 nM and the viability, T/C (second compound 0.03 µM, first compound 0.000949 µM) was 103%. The viability, T/C (second compound 0.03 µM, first compound 0.003 µM) was 92.8%, the viability, T/C (second compound 0.03 µM, first compound 0.00949 µM) was 82.4% and the viability, T/C (second compound 0.03 µM, first compound 0.03 µM) was 60%. For the same compound, the viability, T/C (second compound 0.03 µM, first compound 0.0949 µM) was 52.5%, the viability, T/C (second compound 0.03 µM, first compound 0.3 µM) was 23.6% and the viability, T/C (second compound 0.0949 µM, first compound 0.000949 µM) was 111%. It also gave a viability, T/C (second compound 0.0949 µM, first compound 0.003 µM) of 103%, a viability, T/C (second compound 0.0949 µM, first compound 0.00949 µM) of 90.4% and a viability, T/C (second compound 0.0949 µM, first compound 0.03 µM) of 62.6%. The viability, T/C (second compound 0.0949 µM, first compound 0.0949 µM) was 47.3%, the viability, T/C (second compound 0.0949 µM, first compound 0.3 µM) was 21.7% and the viability, T/C (second compound 0.3 µM, first compound 0.000949 µM) was 112%. It also gave a viability, T/C (second compound 0.3 µM, first compound 0.003 µM) of 102%, a viability, T/C (second compound 0.3 µM, first compound 0.00949 µM) of 87% and a viability, T/C (second compound 0.3 µM, first compound 0.03 µM) of 63.1%. For the same compound, the viability, T/C (second compound 0.3 µM, first compound 0.0949 µM) was 52.5%, the viability, T/C (second compound 0.3 µM, first compound 0.3 µM) was 25% and the viability, T/C (second compound 0.949 µM, first compound 0.000949 µM) was 117%. For the same compound, the viability, T/C (second compound 0.949 µM, first compound 0.003 µM) was 107%, the viability, T/C (second compound 0.949 µM, first compound 0.00949 µM) was 93.4% and the viability, T/C (second compound 0.949 µM, first compound 0.03 µM) was 66.9%. For the same compound, the viability, T/C (second compound 0.949 µM, first compound 0.0949 µM) was 50.4%, the viability, T/C (second compound 0.949 µM, first compound 0.3 µM) was 26.8% and the viability, T/C (second compound 3 µM, first compound 0.000949 µM) was 102%. It also gave a viability, T/C (second compound 3 µM, first compound 0.003 µM) of 94.2%, a viability, T/C (second compound 3 µM, first compound 0.00949 µM) of 79.4% and a viability, T/C (second compound 3 µM, first compound 0.03 µM) of 59.9%. It also gave a viability, T/C (second compound 3 µM, first compound 0.0949 µM) of 46.9% and a viability, T/C (second compound 3 µM, first compound 0.3 µM) of 31.6%.

`CNC(C)C(=O)NC1CN(S(=O)(=O)c2cccc(S(=O)(=O)N3CCC4CCC(C(=O)NC(c5ccccc5)c5ccccc5)N4C(=O)C(NC(=O)C(C)NC)C3)c2)CCC2CCC(C(=O)NC(c3ccccc3)c3ccccc3)N2C1=O` (stereo not given) + Cc1c(S(C)(=O)=O)c(-c2cc(F)cc(N3CCN(c4ccc(NS(=O)(=O)c5ccc(NC(CCN6CCC(C(=O)OCCCP(=O)(O)O)CC6)CSc6ccccc6)c(S(=O)(=O)C(F)(F)F)c5)cc4)CC3)c2)c(-c2ccc(Cl)cc2)n1C(C)C was tested, and the IC50 (second compound 0.1 µM) was less than 3.16 nM, the IC50 (second compound 0.316 µM) was less than 3.16 nM and the IC50 (second compound 1 µM) was less than 3.16 nM. It also gave an IC50 (second compound 3.16 µM) of less than 3.16 nM, an IC50 (second compound 10 µM) of less than 3.16 nM and a viability, T/C (second compound 0.1 µM, first compound 0.00316 µM) of 2.88%. For the same compound, the viability, T/C (second compound 0.1 µM, first compound 0.01 µM) was 0.95%, the viability, T/C [1] was 0.9% and the viability, T/C [2] was 0.67%. The viability, T/C [3] was 0.5%, the viability, T/C [4] was 0.72% and the viability, T/C (second compound 0.316 µM, first compound 0.00316 µM) was 2.6%. For the same compound, the viability, T/C (second compound 0.316 µM, first compound 0.01 µM) was 0.97%, the viability, T/C [7] was 0.75% and the viability, T/C [8] was 0.41%. For the same compound, the viability, T/C [9] was 0.53%, the viability, T/C [10] was 0.56% and the viability, T/C (second compound 1 µM, first compound 0.00316 µM) was 2.07%. For the same compound, the viability, T/C (second compound 1 µM, first compound 0.01 µM) was 0.62%, the viability, T/C [13] was 0.54% and the viability, T/C [14] was 0.29%. For the same compound, the viability, T/C [15] was 0.35%, the viability, T/C [16] was 0.9% and the viability, T/C (second compound 3.16 µM, first compound 0.00316 µM) was 1.77%. It also gave a viability, T/C (second compound 3.16 µM, first compound 0.01 µM) of 0.46%, a viability, T/C [19] of 0.35% and a viability, T/C [20] of 0.27%. The viability, T/C [21] was 0.26%, the viability, T/C [22] was 0.39% and the viability, T/C (second compound 10 µM, first compound 0.00316 µM) was 1.22%. The viability, T/C (second compound 10 µM, first compound 0.01 µM) was 0.49%, the viability, T/C [23] was 0.42% and the viability, T/C [24] was 0.48%. The viability, T/C [25] was 0.43% and the viability, T/C [26] was 0.61%.

With `O=C(c1cc(Cc2n[nH]c(=O)c3ccccc23)ccc1F)N1CCN(C(=O)C2CC2)CC1` + CNC(C)C(=O)NC1CN(S(=O)(=O)c2cccc(S(=O)(=O)N3CCC4CCC(C(=O)NC(c5ccccc5)c5ccccc5)N4C(=O)C(NC(=O)C(C)NC)C3)c2)CCC2CCC(C(=O)NC(c3ccccc3)c3ccccc3)N2C1=O the IC50 (second compound 0.01 µM) was less than 31.6 nM, the IC50 (second compound 0.0316 µM) was less than 31.6 nM and the IC50 (second compound 0.1 µM) was less than 31.6 nM. It also gave an IC50 (second compound 0.316 µM) of less than 31.6 nM, an IC50 (second compound 1 µM) of less than 31.6 nM and a viability, T/C (second compound 0.01 µM, first compound 0.0316 µM) of 2.12%. For the same compound, the viability, T/C (second compound 0.01 µM, first compound 0.1 µM) was 2.15%, the viability, T/C (second compound 0.01 µM, first compound 0.316 µM) was 2.12% and the viability, T/C (second compound 0.01 µM, first compound 1 µM) was 2.46%. The viability, T/C (second compound 0.01 µM, first compound 3.16 µM) was 1.41%, the viability, T/C (second compound 0.01 µM, first compound 10 µM) was 1.59% and the viability, T/C (second compound 0.0316 µM, first compound 0.0316 µM) was 1.57%. The viability, T/C (second compound 0.0316 µM, first compound 0.1 µM) was 1.69%, the viability, T/C (second compound 0.0316 µM, first compound 0.316 µM) was 1.39% and the viability, T/C (second compound 0.0316 µM, first compound 1 µM) was 1.53%. The viability, T/C (second compound 0.0316 µM, first compound 3.16 µM) was 1.35%, the viability, T/C (second compound 0.0316 µM, first compound 10 µM) was 1.61% and the viability, T/C [1] was 1.25%. For the same compound, the viability, T/C [2] was 1.35%, the viability, T/C [3] was 1.63% and the viability, T/C [4] was 1.07%. It also gave a viability, T/C [5] of 1.04%, a viability, T/C [6] of 1.01% and a viability, T/C [7] of 1.03%. It also gave a viability, T/C [8] of 1.15%, a viability, T/C [9] of 1.4% and a viability, T/C [10] of 1.07%. The viability, T/C [11] was 0.98%, the viability, T/C [12] was 0.83% and the viability, T/C [13] was 1.05%. The viability, T/C [14] was 1.48%, the viability, T/C [15] was 1.17% and the viability, T/C [16] was 0.97%. For the same compound, the viability, T/C [17] was 0.82% and the viability, T/C [18] was 0.96%.
